Each structure is given as a SMILES string.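 Results reflect a 48-hour exposure of cells in 96-well plates to compound at five concentrations. Definition used: TGI = concentration required for complete inhibition of growth.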

Common to all, as to assay: NCI-60 cell line screen, 48 h
Assay [1] has as its system DMS 114 small cell lung.
In assay [2] the test system is HCT-15 colon.
Assay [3] has as its system KM12 colon.
Assay [4] deals with KM20L2 colon.
Assay [5] has as its system LXFL 529 NSCLC.
Assay [6] concerns OVCAR-3 ovarian.
Assay [7] relates to RXF 393 renal.
Assay [8] deals with SNB-75 CNS.
Assay [9] concerns SNB-78 CNS.
Assay [10] relates to U251 CNS.
In assay [11] the test system is BT-549 breast.
In assay [12] the test system is MDA-MB-231 breast.

With `COc1cc(C2C(C(=O)Nc3ccccc3)=C(C)NC(C)=C2C(=O)Nc2ccccc2)ccc1O`, the TGI in assay [1] is above 100 µM; in assay [2], above 100 µM; in [3], above 100 µM; in [4], 40 µM; in assay [5], above 100 µM; in [6], 55.9 µM. Moreover, the TGI in [7], in assay [8], in assay [9] and in assay [10] was above 100 µM throughout.
`O=c1[nH]c(=S)[nH]c(O)c1/C=C1\C=CC=N1`: the TGI in assay [1] amounted to 23.3 µM; in [2], 14.8 µM; in assay [3], 39.6 µM; in assay [4], 41.1 µM; in assay [5] it was 21.9 µM; in assay [6], 21.8 µM. Further, the TGI came to 9.6 µM in assay [7], 42.5 µM in assay [8], 67.4 µM in assay [9] and 89.2 µM in [10].
For `O=[N+]([O-])c1ccccc1C1N2CCCCC2[C@@H]2c3[nH]c4ccccc4c3CCN12` (stereo not given in full), the TGI in assay [1] amounted to 14.7 µM; in assay [2], 29.4 µM; in assay [4] it was 25.1 µM; in [5], 22.8 µM; in assay [6], 63.3 µM; in assay [7] it was 26.4 µM. Also, the TGI in assay [9] was found to be 32.2 µM; in assay [10], 31.3 µM.
Consider `CCc1cccc(C)c1NC(=O)NS(=O)(=O)c1ccc(C)cc1`, for which the TGI in assay [1], in assay [2], in [3], in assay [4], in [5] and in assay [6] was above 100 µM in each case. Also, the TGI in assay [7], in [8], in assay [9] and in assay [10] was above 100 µM in each case.
For `CC1(C)OCN(c2ccc(Cl)cc2)Cn2c1nc1ccccc12`, the TGI in [11] is above 100 µM; in assay [1], 53.2 µM; in assay [2], above 100 µM; in assay [3], above 54.1 µM; in assay [4], above 100 µM; in assay [5], above 100 µM. Also, the TGI in assay [12], in assay [6], in assay [7], in assay [8], in assay [9] and in [10] was above 100 µM throughout.
As for `Cc1cc(C)c(C(=O)OC(c2ccccc2)C(c2ccccc2)N2CCOCC2)c(C)c1` (stereo not given), the TGI in assay [1], in assay [2], in assay [3], in assay [4], in assay [5] and in assay [6] was above 100 µM throughout. Besides, the TGI in assay [7], in assay [8], in assay [9] and in assay [10] was above 100 µM throughout.
`CN(O)C(=O)Cc1ccccc1`: the TGI in assay [1], in assay [3], in assay [4], in assay [5], in assay [6] and in assay [7] was above 100 µM in each case. The TGI in assay [8], in assay [9] and in [10] was above 100 µM throughout.
On to `C[Si](C)(C)/C=C/CN1C(=O)CCC1O` (stereo not given), for which the TGI in assay [1], in assay [2], in assay [3], in assay [4], in [5] and in [6] was above 100 µM in each case. The TGI in assay [7], in assay [8], in assay [9] and in [10] was above 100 µM throughout.
For `CCOC(=O)C(C[Si](C)(C)C)P(=O)(OCC)OCC` (stereo not given), the TGI in assay [1], in assay [2], in [3], in assay [4], in [5] and in assay [6] was above 100 µM in each case. For the same compound, the TGI in assay [7], in [8], in assay [9] and in [10] was above 100 µM in each case.
`COc1cc2c(cc1C)n(O)c(C)c(C(=O)C/C(=N/NC(=O)C[N+](C)(C)C)C(=O)Nc1cccc(Cl)c1C)[n+]2=O`: the TGI in assay [1], in assay [2], in assay [3], in assay [4], in assay [5] and in [6] was above 100 µM each time. Besides, the TGI in assay [7], in assay [8], in assay [9] and in assay [10] was above 100 µM in each case.
Consider `COc1ccc(C(=O)C=C2NCCN2)cc1`, for which the TGI in assay [1], in assay [3], in assay [4], in assay [5], in assay [6] and in assay [7] was above 100 µM each time. The TGI in [8], in assay [9] and in [10] was above 100 µM throughout.
For the compound `Cc1ccc(NC(=O)C(=O)Cc2nc3ccccc3o2)c(C)c1`, the TGI in [1], in [2], in assay [3], in assay [4], in assay [5] and in assay [6] was above 100 µM throughout. Also, the TGI in assay [7], in assay [8], in assay [9] and in assay [10] was above 100 µM in each case.
For `Cc1ccc(N2C(=O)/C(=C3\Sc4c(nc(C)[nH]c4=O)N3c3ccccc3)SC2=S)cc1`, the TGI is above 100 µM in [1]; above 100 µM in assay [2]; above 100 µM in assay [4]; above 100 µM in assay [5]; 47.7 µM in [6]; 56.4 µM in [8]. For the same compound, the TGI in [9] is above 100 µM; in [10] it was 37.9 µM.
Turning to `CC[C@@H]1OC2(C)CC(S(=O)(=O)c3ccccc3)CC1O2` (stereo not given in full), the TGI in [1], in assay [2], in assay [3], in assay [4], in assay [5] and in assay [6] was above 100 µM each time. Also, the TGI in assay [7], in assay [8], in assay [9] and in [10] was above 100 µM each time.
As for `O=C1C(c2ccccc2)=C(c2ccccc2)C(c2ccc(CCCCCCc3ccc(C4=C(c5ccccc5)C(=O)C(c5ccccc5)=C4c4ccccc4)cc3)cc2)=C1c1ccccc1`, the TGI in [1], in assay [2], in [3], in assay [4], in assay [5] and in assay [6] was above 100 µM each time. Also, the TGI in assay [7] was 79.7 µM; in [9], above 100 µM; in assay [10] it was above 100 µM.
For the compound `COC1=C(OC)CCC(/C(C#N)=C/c2ccc(OC)c(OC)c2)=C1`, the TGI in assay [1], in assay [2], in assay [3], in [4], in assay [5] and in assay [6] was above 100 µM each time. For the same compound, the TGI is 92.9 µM in [7], 43 µM in [8], above 100 µM in assay [9] and above 100 µM in assay [10].

(Values after PubChem BioAssay (NCI).)
